Molecular target: P. falciparum apicoplast DNA polymerase (Pf-apPOL) (Plasmodium falciparum, UniProt Q8ILY1)
Assay: Fluorescence-based high-throughput DNA polymerase assay (molecular beacon), primary screen and dose-response
Format: biochemical
Method: The HT assay employs a molecular beacon, a stem-loop DNA template with a Cy3 dye and the Black Hole Quencher on the 3′ and 5′ ends of the DNA, respectively. Pf-apPOL concentration is based on a calculated absorptivity of ε280 = 56750 M^−1 cm^−1. Reactions were carried out at 25 °C, using Corning 3575 […] (well-volume, 20 µL). Assays testing for compound inhibition composed of reaction buffer (pH 7.9 in 50 mM potassium acetate, 20 mM Tris-acetate and 10 mM magnesium acetate), Pf-apPOL (20 nM), DNA substrate (20 nM), dNTPs (6 µM), and compound (10 µM in DMSO). The DNA and nucleotide substrates (dNTPs) were at concentrations of 20 nM and 6 µM, respectively, in the assay. Pf-apPOL was incubated in the reaction buffer with dNTPs and the compound of interest (10 µM, in the assay) at 25 °C for 10 min. The DNA substrate was then added and the reaction was allowed to proceed for 90 min at 25 °C.
Each assay plate contained 16 negative controls (no Pf-apPOL, DMSO present) and 16 positive controls (Pf-apPOL present, no DMSO). The fluorescence of each well was determined using a BioTek Synergy Neo fluorescence plate reader using excitation and emission wavelengths of 555 and 570 nm, respectively.
In the above, Min is the average of fluorescence emission of the negative controls (substrate only), Max the average fluorescence emission from the positive controls (enzyme + substrate), and Test the emission from the assays in the presence of compounds (enzyme + compound + substrates). […] […] The IC50 of each compound was determined using Equation (2): (2) IC50= Vmax/(1+ (I/IC50)^n)
In the above, n measures cooperativity, with n > 1 indicating synergistic binding of more than a single molecule of the compound.
To identify apPOL inhibitors we utilised our previously developed high-throughput DNA polymerase assay. The HT assay is based on a molecular beacon DNA template that forms a stem-loop with a Cy3 dye and the Black Hole Quencher on the 3′ and 5′ ends of the DNA, respectively. DNA polymerase activity extends an annealed primer through the stem region, displacing the fluorophore from the quencher, thereby increasing its fluorescence (Figure 1(A)). The assay accurately recapitulates the kinetic behaviour of apPOL, as measured through more conventional low-throughput gel-based assays. The Z′ factor for the assay described here was 0.9 across all plates (data not shown).
Figure 1. High-throughput screening. (A) The fluorescent-based DNA polymerase assay used to screen the compound libraries. The DNA template strand is a hairpin loop with a primer annealed to the loop. The 3’ end of the primer is 11 bases away from the 6 bp duplex. Strand displacement activity of the DNA polymerase separates the Cy3 dye from the Black hole quencher leading to an increase in fluorescent signal. (B) The high-throughput assay workflow. The DNA polymerase is incubated with […] compound for 10 min prior to addition of the hairpin substrate. The reaction is quenched at 3 different time points and the fluorescent signal is measured and % inhibition is determined using the provided equation.

[1] = primary screen value of the 186 hits; unit not given; 90 min, 10 µM

P. falciparum apicoplast DNA polymerase (Pf-apPOL), sequence (Q8ILY1 entry or part of it): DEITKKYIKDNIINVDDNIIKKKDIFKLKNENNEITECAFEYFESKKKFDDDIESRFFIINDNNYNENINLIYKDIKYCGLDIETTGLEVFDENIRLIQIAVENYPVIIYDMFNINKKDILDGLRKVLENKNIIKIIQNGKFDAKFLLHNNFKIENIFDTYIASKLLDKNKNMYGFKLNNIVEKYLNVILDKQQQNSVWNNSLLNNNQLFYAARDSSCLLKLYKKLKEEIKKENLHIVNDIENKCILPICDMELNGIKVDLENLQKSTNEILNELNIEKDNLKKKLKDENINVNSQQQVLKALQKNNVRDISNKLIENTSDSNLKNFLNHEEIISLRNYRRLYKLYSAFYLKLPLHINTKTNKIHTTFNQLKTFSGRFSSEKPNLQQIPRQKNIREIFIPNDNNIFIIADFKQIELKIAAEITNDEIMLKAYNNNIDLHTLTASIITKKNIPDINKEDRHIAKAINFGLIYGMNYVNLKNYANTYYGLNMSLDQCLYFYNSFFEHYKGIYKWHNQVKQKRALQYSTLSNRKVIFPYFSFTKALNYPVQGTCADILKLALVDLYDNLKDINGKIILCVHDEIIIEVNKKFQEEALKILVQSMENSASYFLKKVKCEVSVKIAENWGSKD

For `O=C1c2ccccc2C(=O)c2c1oc1c3c(ccc21)OCN(C1CCCC1)C3` [KU0064306], which “% inhibition Apo pol 10'” value (DRC-1; concentration 2.5; 10') is on record?
Its value is 14.122%.

What about the “% inhibition Apol 90'” value (DRC-1; concentration 2.5; 90') of the same compound?
Its value is 11.9333%.

And the “% inhibition apPOL 180'” value (DRC-1; concentration 2.5; 180')?
The value was 9.893%.

And the “% inhibition Apo pol 10'” value (DRC-1; concentration 5; 10')?
The value was 20.6805%.

And the “% inhibition Apol 90'” value (DRC-1; concentration 5; 90')?
Its value is 18.9077%.

What about the “% inhibition apPOL 180'” value (DRC-1; concentration 5; 180') of the same compound?
Its value is 20.5988%.

What about the “% inhibition Apo pol 10'” value (DRC-1; concentration 10; 10') of the same compound?
Its value is 48.1868%.

What about the “% inhibition Apol 90'” value (DRC-1; concentration 10; 90') of the same compound?
Its value is 43.2395%.

What about the “% inhibition apPOL 180'” value (DRC-1; concentration 10; 180') of the same compound?
The value was 45.5926%.

What about the “% inhibition Apo pol 10'” value (DRC-1; concentration 20; 10') of the same compound?
The value was 73.389%.

And the “% inhibition Apol 90'” value (DRC-1; concentration 20; 90')?
The value was 72.2655%.

And the “% inhibition apPOL 180'” value (DRC-1; concentration 20; 180')?
Its value is 74.7554%.

What about the “% inhibition Apo pol 10'” value (DRC-1; concentration 40; 10') of the same compound?
Its value is 87.7037%.

What about the “% inhibition Apol 90'” value (DRC-1; concentration 40; 90') of the same compound?
Its value is 89.2086%.

And the “% inhibition apPOL 180'” value (DRC-1; concentration 40; 180')?
The value was 90.8162%.

And the “% inhibition Apo pol 10'” value (DRC-1; concentration 80 (unit not given); 10')?
Its value is 89.3485%.

And the “% inhibition Apol 90'” value (DRC-1; concentration 80; 90')?
The value was 90.7443%.

What about the “% inhibition apPOL 180'” value (DRC-1; concentration 80; 180') of the same compound?
The value was 92.3974%.

What about the “% inhibition Apo pol 5'” value (DRC-2; 5'; concentration 5) of the same compound?
The value was 23%.

And the “% inhibition Apo pol 5'” value (DRC-2; 5'; concentration 40)?
The value was 47%.

And the “% inhibition Apol 40'” value (DRC-2; 40'; concentration 2.5)?
Its value is 17%.

And the “% inhibition Apol 40'” value (DRC-2; 40'; concentration 80)?
Its value is 60%.

And the “% inhibition ApPOL 90'” value (DRC-2; 90'; concentration 2.5)?
Its value is 17%.

And the “% inhibition ApPOL 90'” value (DRC-2; 90'; concentration 10)?
Its value is 47%.

And the “% inhibition ApPOL 90'” value (DRC-2; 90'; concentration 20)?
The value was 60%.

And the “% inhibition apPOL 180'” value (DRC-2; 180'; concentration 5)?
The value was 23%.

And the “% inhibition apPOL 180'” value (DRC-2; 180'; concentration 10)?
The value was 47%.

What about the “% inhibition Apo pol 5'” value (DRC-2; concentration 2.5; 5') of the same compound?
Its value is 16%.

What about the “% inhibition Apol 40'” value (DRC-2; concentration 2.5; 40') of the same compound?
Its value is 17%.

And the “% inhibition ApPOL 90'” value (DRC-2; concentration 2.5; 90')?
The value was 17%.

What about the “% inhibition apPOL 180'” value (DRC-2; concentration 2.5; 180') of the same compound?
The value was 15%.

What about the “% inhibition Apo pol 5'” value (DRC-2; concentration 5; 5') of the same compound?
The value was 23%.

And the “% inhibition Apol 40'” value (DRC-2; concentration 5; 40')?
The value was 24%.

And the “% inhibition ApPOL 90'” value (DRC-2; concentration 5; 90')?
Its value is 25%.

What about the “% inhibition apPOL 180'” value (DRC-2; concentration 5; 180') of the same compound?
Its value is 23%.

What about the “% inhibition Apo pol 5'” value (DRC-2; concentration 10; 5') of the same compound?
The value was 42%.

What about the “% inhibition Apol 40'” value (DRC-2; concentration 10; 40') of the same compound?
Its value is 46%.

What about the “% inhibition ApPOL 90'” value (DRC-2; concentration 10; 90') of the same compound?
The value was 47%.

What about the “% inhibition apPOL 180'” value (DRC-2; concentration 10; 180') of the same compound?
The value was 47%.

And the “% inhibition Apo pol 5'” value (DRC-2; concentration 20; 5')?
Its value is 43%.

And the “% inhibition Apol 40'” value (DRC-2; concentration 20; 40')?
Its value is 55%.

And the “% inhibition ApPOL 90'” value (DRC-2; concentration 20; 90')?
Its value is 60%.

And the “% inhibition apPOL 180'” value (DRC-2; concentration 20; 180')?
The value was 63%.

What about the “% inhibition Apo pol 5'” value (DRC-2; concentration 40; 5') of the same compound?
Its value is 47%.

And the “% inhibition Apol 40'” value (DRC-2; concentration 40; 40')?
Its value is 62%.

What about the “% inhibition ApPOL 90'” value (DRC-2; concentration 40; 90') of the same compound?
Its value is 68%.

What about the “% inhibition apPOL 180'” value (DRC-2; concentration 40; 180') of the same compound?
The value was 72%.

What about the “% inhibition Apo pol 5'” value (DRC-2; concentration 80; 5') of the same compound?
Its value is 44%.

What about the “% inhibition Apol 40'” value (DRC-2; concentration 80; 40') of the same compound?
The value was 60%.

What about the “% inhibition ApPOL 90'” value (DRC-2; concentration 80; 90') of the same compound?
The value was 65%.

And the “% inhibition apPOL 180'” value (DRC-2; concentration 80; 180')?
Its value is 70%.

And the “DNA Pol” value [1]?
The value was 61.

And the “DNA Pol” value (primary screen value; head prints only 'DNA Pol'; 90 min, 10 µM)?
Its value is 61.

What does the source list for `CCCCSc1nnc2c(n1)OC(c1ccc([N+](=O)[O-])o1)Nc1ccccc1-2` (centres unmarked) [KU0065811]?
% inhibition Apo pol 10' (DRC-1; 10'; concentration 2.5): 24.76%; % inhibition Apo pol 10' (DRC-1; 10'; concentration 5): 28.8752%; % inhibition Apo pol 10' (DRC-1; 10'; concentration 10): 64.0477%; % inhibition Apo pol 10' (DRC-1; 10'; concentration 20): 79.0403%; % inhibition Apo pol 10' (DRC-1; 10'; concentration 40): 87.9065%; % inhibition Apo pol 10' (DRC-1; 10'; concentration 80): 83.2493%; % inhibition Apol 90' (DRC-1; 90'; concentration 2.5): 16.1067%; % inhibition Apol 90' (DRC-1; 90'; concentration 5): 15.8932%; % inhibition Apol 90' (DRC-1; 90'; concentration 10): 47.3098%; % inhibition Apol 90' (DRC-1; 90'; concentration 20): 63.8014%; % inhibition Apol 90' (DRC-1; 90'; concentration 40): 80.4903%; % inhibition Apol 90' (DRC-1; 90'; concentration 80): 83.7363%; % inhibition apPOL 180' (DRC-1; 180'; concentration 2.5): 8.192%; % inhibition apPOL 180' (DRC-1; 180'; concentration 5): 3.59%; % inhibition apPOL 180' (DRC-1; 180'; concentration 10): 30.0435%; % inhibition apPOL 180' (DRC-1; 180'; concentration 20): 48.0622%; % inhibition apPOL 180' (DRC-1; 180'; concentration 40): 73.3106%; % inhibition apPOL 180' (DRC-1; 180'; concentration 80): 82.0141%; % inhibition Apol 40' (DRC-2, 40', concentration 5 (unit not given)): 36%; % inhibition Apol 40' (DRC-2, 40', concentration 20 (unit not given)): 59%; % inhibition ApPOL 90' (DRC-2, 90', concentration 20 (unit not given)): 59%; % inhibition Apo pol 5' (DRC-2; 5'; concentration 2.5): 27%; % inhibition Apo pol 5' (DRC-2; 5'; concentration 5): 36%; % inhibition Apo pol 5' (DRC-2; 5'; concentration 5 (unit not given)): 36%; % inhibition Apo pol 5' (DRC-2; 5'; concentration 10): 51%; % inhibition Apo pol 5' (DRC-2; 5'; concentration 20): 47%; % inhibition Apo pol 5' (DRC-2; 5'; concentration 40): 37%; % inhibition Apo pol 5' (DRC-2; 5'; concentration 80): 13%; % inhibition Apol 40' (DRC-2; 40'; concentration 2.5): 25%; % inhibition Apol 40' (DRC-2; 40'; concentration 5): 36%; % inhibition Apol 40' (DRC-2; 40'; concentration 10): 55%; % inhibition Apol 40' (DRC-2; 40'; concentration 20): 59%; % inhibition Apol 40' (DRC-2; 40'; concentration 40): 57%; % inhibition Apol 40' (DRC-2; 40'; concentration 80): 42%; % inhibition ApPOL 90' (DRC-2; 90'; concentration 2.5): 22%; % inhibition ApPOL 90' (DRC-2; 90'; concentration 5): 32%; % inhibition ApPOL 90' (DRC-2; 90'; concentration 10): 52%; % inhibition ApPOL 90' (DRC-2; 90'; concentration 20): 59%; % inhibition ApPOL 90' (DRC-2; 90'; concentration 40): 62%; % inhibition ApPOL 90' (DRC-2; 90'; concentration 80): 50%; % inhibition apPOL 180' (DRC-2; 180'; concentration 2.5): 11%; % inhibition apPOL 180' (DRC-2; 180'; concentration 5): 19%; % inhibition apPOL 180' (DRC-2; 180'; concentration 10): 41%; % inhibition apPOL 180' (DRC-2; 180'; concentration 20): 53%; % inhibition apPOL 180' (DRC-2; 180'; concentration 40): 64%; % inhibition apPOL 180' (DRC-2; 180'; concentration 80): 58%; DNA Pol [1]: 52; DNA Pol (primary screen value, head "DNA Pol", unit not given; 90 min, 10 µM): 52
